“Also recorded” adds a separate entry of the source.
Experiments:
gastrocnemius muscle = assay: Gene chip analysis in hindlimb unloading (tail suspension) skeletal muscle atrophy model; type: in vivo, BalbC mice; details: for Differentially expressed probe sets for genes between HU and HU + treatment group: 50 μg/kg/bw (combo 50+50) by gavage twice, 7 days hindlimb unloading, Affymetrix Mouse 430-2; for Expression of Myosin, light chain kinase (Mylk) / Expression of Tropomyosin 1 (Tpm1) / Expression of Titin (Tnt) / Expression of Myomesin 1 (Myom 1) / Number of differentially expressed probe sets also differentially expressed in 25-OH D3+Vitamin D3 group / Share of differentially expressed probe sets also differentially expressed in 25-OH D3+Vitamin D3 group: gastrocnemius muscle; for Expression of Myosin, light chain kinase (Mylk): HU control 749; for Expression of Tropomyosin 1 (Tpm1): HU control 1179; for Expression of Titin (Tnt): HU control 11353; for Expression of Myomesin 1 (Myom 1): HU control 84697; for Differentially expressed muscle genes compared to HU: selected skeletal muscle genes, list wrapped over table lines; for Number of differentially expressed probe sets also differentially expressed in 25-OH D3+Vitamin D3 group / Share of differentially expressed probe sets also differentially expressed in 25-OH D3+Vitamin D3 group: vs HU control
From the text: Initially this model was established in rats for simulating spaceflight in humans and is commonly used in other scientific fields to study the loss of skeletal muscle mass or bone. The results are considered indicative of human conditions such as sarcopenia (degenerative loss of skeletal muscle mass and strength during the process of ageing) or immobilization of skeletal muscle (e.g. after prolonged bed rest due to fractures, surgery or trauma). Methods For our study, nine month old BalbC female mice were randomized at the beginning of the study into four groups with 10 animals per group • 1. […] The animals were placed in special cages for duration of seven days; all mice were housed separately and had free access to feed and water ad libidum. All animals were treated twice by gavage at the beginning of the experiment and 3 hours before the section: 1. the control group received vehicle (gelatine) […] At the end of the study the gastrocnemius muscle was taken out and directly frozen in liquid nitrogen for further analysis. […] Total RNA was isolated using the commonly used Trizol protocol. The RNA was quantified by using spectrophotometric analysis. The integrity of total RNA samples was also assessed qualitatively on an Agilent 2100 Bioanalyzer. RNA was then prepared for the one cycle cDNA synthesis. A poly-A RNA control is used for this step to provide exogenous positive controls to monitor the entire eukaryotic target labelling process. The first cDNA synthesis is done, and after the second strand cDNA synthesis the cDNA is cleaned up of double-stranded cDNA. A biotin labelled cRNA is then synthesised, cleaned up and quantified using a spectrophotometer at 260/280 nm. It is important that cRNA target is fragmented before hybridization onto a GeneChip probe arrays to obtain optimal assay sensitivity. After fragmentation the probes are hybridized on the chips (Affymetrix Mouse 430-2 chips). The chips are washed and stained in the fluidics station of Affymetrix and scanned in the gene chip scanner. The data is then transferred from the scanner for further analysis using software from Genedata (Expressionist 5.0: […] Analyst). Data interpretation and pathway analysis was done with the online version of the GeneGo Metacore package ([…] evaluates microarray data for quality issues and flags problematic measurements. It provides a set of normalization algorithms and validated condensing methods to automatically pre-process and summarize raw microarray data for subsequent statistical analysis.

[1] = Clinical trial: plasma 25-OH D after single oral bolus of 25-OH D3, Vitamin D3 or both; type: in vivo, human; details: single oral bolus 140 μg (combo 140 μg + 140 μg)
From the text: Each group included five subjects. They are followed for four months in Zurich, Switzerland during the winter.
Equal quantities of both substances were investigated. […] As the maximum pre-existing baseline concentration of 25-OH D will be 50 nmol/L, it is not anticipated that subjects will approach the range where disturbance in Ca^2+ homeostasis has been observed.
Each dosage is consumed orally at breakfast. The duration of the study is four months for the “Daily” and “Weekly” groups. Subjects enrolled in the “Bolus” group consume orally a single dosage at the second study visit and are further followed-up for four months.

[2] = ingestion of 250 μg/day as a dietary supplement; cited from earlier work

Compound	Differentially expressed probe sets for genes between HU and HU + treatment group (gastrocnemius muscle)	Expression of Myosin, light chain kinase (Mylk) (gastrocnemius muscle)	Expression of Tropomyosin 1 (Tpm1) (gastrocnemius muscle)	Expression of Titin (Tnt) (gastrocnemius muscle)	Expression of Myomesin 1 (Myom 1) (gastrocnemius muscle)	Differentially expressed muscle genes compared to HU (gastrocnemius muscle)	Number of differentially expressed probe sets also differentially expressed in 25-OH D3+Vitamin D3 group (gastrocnemius muscle)	Share of differentially expressed probe sets also differentially expressed in 25-OH D3+Vitamin D3 group (gastrocnemius muscle) [%]	Time period with increase in plasma 25-OH D levels by at least 30 nmol/L [1]	Blood concentration of 25-hydroxyvitamin D resulting from ingestion [2]
C=C1CC[C@H](O)C/C1=C/C=C1\CCC[C@]2(C)[C@@H]([C@H](C)CCCC(C)C)CC[C@@H]12 [Vitamin D3, cholecalciferol]	385	786	2199	11354	99099	Desmin; myoneurin; tropomyosin 1, alpha; tropomyosin 2,; also recorded: beta; X-linked myotubular myopathy gene 1	177	~46		
C=C1CC[C@H](O)C/C1=C/C=C1\CCC[C@]2(C)[C@@H]([C@H](C)CCCC(C)(C)O)CC[C@@H]12 [25-OH D3, 25-hydroxyvitamin D3]	1263	994	2110	13786	105393	alkali, smooth muscle and non-muscle; myosin, light; also recorded: polypeptide kinase; myotubularin related protein 2;; also recorded: myotubularin related protein 4; myotubularin related; also recorded: protein 6; tropomyosin 2, beta; X-linked myotubular; also recorded: myopathy gene 1; also recorded: Desmin; dystonin; myocyte enhancer factor 2A;; also recorded: myoneurin; myosin VIIb; myosin, light polypeptide 6,	769	~61	4 to 49 h	
Vitamin D									no increase of that magnitude	about 200 nmol/L
